Test results reported in PMC3117839, “Efficacy Study of Novel Diamidine Compounds in a Trypanosoma evansi Goat Model” (PLoS ONE, 2011).
Entries after “also recorded” stand apart in the source; their conditions may differ. Where two headings read alike, the source gives them in different places.

How the values were obtained:
[1] = Plasma drug levels and pharmacokinetic parameters in T. evansi infected goats (HPLC/MS-MS); format: in vivo, goat
Procedure: In addition, blood samples were taken shortly before each compound injection was applied, to determine the trough levels. All samples were centrifuged at 3000 g for ten minutes. Subsequently, the plasma was removed, placed into sterile polypropylene cryotubes and stored away from light at −80°C. Mass spectrometry analysis was performed on all plasma samples using 25 µl aliquots. Calibrators were prepared separately for each analyte. Stock solutions of diminazene, DB 75, DB 867 and DB1192 were prepared in water. Curves were then prepared and analysed in duplicate, at both the beginning and the end of the analytical run. Concentrations of diminazene, DB 75, DB 867 and DB 1192 were determined by Liquid Chromatography/Triple Quadrupole Mass Spectrometry (HPLC/MS-MS). The pharmacokinetic parameters were determined using Microsoft® Excel software, with a functional set of add-ins applied, together with a graphical programme (GraphPad Prism 5, GraphPad Software Inc, USA). The compound plasma levels can be seen in Figure 1 for a) the standard drug, diminazene, b) DB 1192, c) DB 75 and d) DB 867. The plasma samples taken were analysed by HPLC/MS-MS to determine the drug concentrations (in ng/ml). From these values, the averages from the experimental goats in each group were calculated and drug concentration versus time curves were plotted with a line of best fit applied, corresponding to either the high or low compound dose tested.

T. evansi [2] = system: T. evansi; set-up: method as in PMID 20149544; details: cited from earlier work; for in vitro IC50: 72 hour assay against T. evansi; for estimated MIC (minimal inhibitory concentration): estimated at least four times the IC50
T. evansi [3] = experiment: Curative efficacy in T. evansi experimentally infected goats (five month follow up, overall outcome); format: in vivo, Trypanosoma evansi (Canaries (Rubio) strain) in goats
Procedure: Various diagnostic tests were used to evaluate the curative efficacy of the compounds, over a five month follow up period. The haematocrit centrifugation technique, was utilised as the standard parasitological test. The serological CATT/T. evansi test was performed to determine the presence or absence of antibodies. As a validating molecular based technique, a mini-exon 18S ribosomal PCR method designed for the detection of parasite DNA was also applied.
Fresh camel blood (400 µl) was collected from the jugular vein of a camel and 200 µl volumes inoculated (i.p.) into two mice. Once a parasitaemia had established, blood was collected via cardiac puncture and mixed with phosphate buffered saline with glucose (PSG) to provide the T. evansi suspension used for experimental goat infection. Thereafter, all 25 goats were experimentally infected intravenously (i.v.), with 10^6 parasites/goat.
Goats were divided into 8 groups, where group 1 contained four goats whilst group's 2 to 8 each contained three goats. […] All test compounds were administered intra-muscularly with four applications, on days 32, 34, 36 and 38 post-infection. Thereafter, follow up diagnostic methods were carried out for five months post treatment.

[4] = 1.25 mg/kg x4, 72 hours after final injection
[5] = 2.5 mg/kg x4, 72 hours after final injection
[6] = 2.5 mg/kg x4, 192 hours after final injection
[7] = goat plasma, four applications of 1.25 mg/kg i.m., average plasma levels
[8] = goat plasma, four applications of 2.5 mg/kg i.m., average plasma levels
[9] = 1.25 mg/kg i.m. x4, five month follow up
[10] = 2.5 mg/kg i.m. x4, five month follow up

SMILES: N=C(N)c1ccc(-c2ccc(-c3ccc(C(=N)N)cc3)o2)cc1 [DB 75]
- concentration in goat plasma [1, 4]: 2223 ng/mL
- concentration in goat plasma ([1]; 1.25 mg/kg x4, 192 hours after final injection): above 1500 ng/ml
- concentration in goat plasma [1, 5]: 1923 ng/mL
- concentration in goat plasma [1, 6]: above 1500 ng/ml
- AUC [1, 7]: 394305
- Cmax [1, 7]: ≥3115 ng/mL
- MRT [1, 7]: 89.5 h
- T1/2 [1, 7]: 279.3 h
- AUC [1, 8]: 358215
- Cmax [1, 8]: ≥2530 ng/mL
- MRT [1, 8]: 93.4 h
- T1/2 [1, 8]: 473.7 h
- in vitro IC50 (T. evansi [2]): 2.3 ng/mL
- estimated MIC (minimal inhibitory concentration) (T. evansi [2]): 9.2 ng/mL
- curative efficacy (T. evansi [3]; [9]): Complete cure; also recorded: complete curative efficacy
- curative efficacy (T. evansi [3]; [10]): Complete curative efficacy

SMILES: N=C(N)c1ccc(-c2ccc(-c3ccc(C(=N)N)nc3)o2)cc1 [DB 867]
- concentration in goat plasma [1, 4]: above 1850 ng/ml
- concentration in goat plasma [1, 5]: above 1850 ng/ml
- AUC [1, 7]: 381604
- Cmax [1, 7]: ≥3663 ng/mL
- MRT [1, 7]: 87.9 h
- T1/2 [1, 7]: 202.5 h
- AUC [1, 8]: 360895
- Cmax [1, 8]: ≥3310 ng/mL
- MRT [1, 8]: 90.0 h
- T1/2 [1, 8]: 221.4 h
- in vitro IC50 (T. evansi [2]): 1.7 ng/mL
- estimated MIC (minimal inhibitory concentration) (T. evansi [2]): 6.8 ng/mL
- time to relapse post treatment (T. evansi [3]; 1.25 mg/kg i.m. x4): 4.5 months
- curative efficacy (T. evansi [3]; [9]): a relapse was seen during the final month of the follow up period
- curative efficacy (T. evansi [3]; [10]): Complete curative efficacy; also recorded: cured; also recorded: curative efficacy was seen

SMILES: Cc1cc(C(=N)N)ccc1-c1cc2cc(C(=N)N)ccc2[nH]1 [DB 1192]
- concentration in goat plasma [1, 4]: 18 ng/mL
- concentration in goat plasma [1, 5]: 32 ng/mL
- concentration in goat plasma [1, 6]: 10 ng/mL
- time until plasma level fell below the therapeutic threshold ([1]; both doses (2.5 and 1.25 mg/kg), post treatment): ≤ 24 h
- AUC [1, 7]: 4809
- Cmax [1, 7]: ≥836 ng/mL
- MRT [1, 7]: 52.3 h
- T1/2 [1, 7]: 37.0 h
- AUC [1, 8]: 9861
- Cmax [1, 8]: ≥1563 ng/mL
- MRT [1, 8]: 38.4 h
- T1/2 [1, 8]: 30.5 h
- in vitro IC50 (T. evansi [2]): 10.5 ng/mL
- estimated MIC (minimal inhibitory concentration) (T. evansi [2]): around 40 ng/ml
- curative efficacy (T. evansi [3]; [9]): incapable of curing goats; also recorded: not effective
- curative efficacy (T. evansi [3]; [10]): incapable of curing goats; also recorded: not effective

SMILES: N=C(N)c1ccc(/N=N/Nc2ccc(C(=N)N)cc2)cc1 [Diminazene, Diminazene aceturate, reference compound]
- half-life ([1]; Canarian, im, goat plasma, four applications of 5 mg/kg i.m., average plasma levels): 59.1 h
- AUC ([1]; Canarian, im, goat plasma, four applications of 5 mg/kg i.m., average plasma levels, read-out: AUC): 194 µg·h/mL
- Cmax ([1]; Canarian, im, goat plasma, four applications of 5 mg/kg i.m., average plasma levels, read-out: Cmax): ≥ 8640 ng/mL
- MRT ([1]; Canarian, im, goat plasma, four applications of 5 mg/kg i.m., average plasma levels, read-out: MRT): 70.7 h
- concentration at 72 h ([1]; goat, plasma, intramuscular, 5 mg/kg x4, 72 hours after the end of treatment): 1110 ng/mL
- concentration at 192 h ([1]; goat, plasma, intramuscular, 5 mg/kg x4, 192 hours after final injection): 568 ng/mL
- in vitro IC50 (T. evansi [2]): 12.5 ng/mL
- estimated MIC (minimal inhibitory concentration) (T. evansi [2]): 50 ng/mL
- curative efficacy (T. evansi [3]; 5 mg/kg i.m. x4, five month follow up): Complete curative efficacy
